Experimental data as given in article PMC7251097, “Aspartate/asparagine-β-hydroxylase: a high-throughput mass spectrometric assay for discovery of small molecule inhibitors” (Scientific Reports, 2020).
“Also recorded” adds a separate entry of the source. Where a name gives a salt, the structure may show the parent alone. Read-outs that look alike come from different tables or passages of the source.

Target: T1, His6-AspH315–758 (human aspartate/asparagine-β-hydroxylase, AspH) (Homo sapiens, UniProt Q12797)
T1 construct: N-Terminally His6-tagged human AspH315–758 (His6-AspH315–758) was produced in E. coli BL21 (DE3) cells; made in house; host or cells: E. coli BL21 (DE3), pET-28a(+) vector
T1 sequence (Q12797 315-758): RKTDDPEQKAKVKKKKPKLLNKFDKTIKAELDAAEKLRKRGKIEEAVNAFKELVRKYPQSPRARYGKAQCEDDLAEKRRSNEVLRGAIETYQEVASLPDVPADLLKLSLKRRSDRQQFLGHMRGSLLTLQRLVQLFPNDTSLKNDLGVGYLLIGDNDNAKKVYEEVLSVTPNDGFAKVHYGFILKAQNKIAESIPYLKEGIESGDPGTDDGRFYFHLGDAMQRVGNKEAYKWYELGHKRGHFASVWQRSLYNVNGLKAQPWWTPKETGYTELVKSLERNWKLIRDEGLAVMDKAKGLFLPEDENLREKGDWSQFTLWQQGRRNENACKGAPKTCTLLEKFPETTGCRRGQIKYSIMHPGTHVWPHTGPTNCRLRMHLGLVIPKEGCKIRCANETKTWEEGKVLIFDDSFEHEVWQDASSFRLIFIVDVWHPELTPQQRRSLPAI
Assay: SPE-MS AspH inhibition assay (LOPAC screen at fixed 20 μM and IC50 dose-response), hydroxylation of cyclic peptide hFX-CP101–119
Format: biochemical

[1] = LOPAC Plate 4, compound at 20 uM, substrate conversion
[2] = LOPAC compound at 20uM, plate 2, conversion of substrate peptide
[3] = LOPAC compound at 20uM, plate 2, normalised to DMSO and 2,4-PDCA controls
[4] = AspH activity, fixed compound concentration 20 μM, initial LOPAC screen, 0.5%v/v DMSO, read-out: Inhibition at 20 µM [%]
[5] = LOPAC compound at fixed 20 uM, plate 1, normalised to DMSO and 2,4-PDCA controls
[6] = LOPAC compound at fixed 20 uM, substrate conversion, plate 1
[7] = LOPAC compound at 20uM, plate 2, normalised to DMSO and 2,4-PDCA controls, read-out: Plate 2 (% inhibition)

Fc1ccc2[nH]c(CN3CCN(c4ccccn4)CC3)cc2c1 [CP-226269]
% conversion: 39.74%
Plate 5 (% conversion): 37.75%
Plate 5 (% inhibition): -4.22%

O.O.O=C(Nc1ccc2c(c1)CCN(Cc1ncn[nH]1)C2)c1ccccc1-c1ccc(C(F)(F)F)cc1 [CP-346086 dihydrate]
% inhibition (LOPAC Plate 4, compound at 20 uM): -27.35%
% conversion [1]: 45.80%

O=C(Nc1ccc2c(c1)CCN(Cc1ncn[nH]1)C2)c1ccccc1-c1ccc(C(F)(F)F)cc1 [CP-346086]
Plate 5 (% conversion): 46.02%
Plate 5 (% inhibition): -28.53%

COCCOc1cc2nc[nH]c(=O)c2cc1OCCOC [CP-380736]
Plate 1 (% conversion): 40.54%
Plate 1 (% inhibition): -13.90%
Plate 5 (% conversion): 31.91%
Plate 5 (% inhibition): 12.94%

CC(C)(NS(=O)(=O)c1ccc(Oc2ccc(F)cc2)cc1)C(=O)NO [CP-471474]
Plate 5 (% conversion): 38.13%
Plate 5 (% inhibition): -5.33%

CC(C)c1ccc(CC(=O)N2CCC[C@@H](c3cccc(OC(C)(C)C(=O)O)c3)C2)cc1 [CP-775146]
Plate 5 (% conversion): 34.51%
Plate 5 (% inhibition): 5.31%

CN(CCC(Oc1ccc(C(=O)c2nccs2)cc1)c1ccc(Cl)cc1)CC(=O)O (centres unmarked) [CP-802079]
Plate 5 (% conversion): 32.57%
Plate 5 (% inhibition): 11.01%

CC(C)c1c(-c2ccccc2)[nH]c2c(C#N)cnn2c1=O [CPI-455, reference compound]
IC50 [μM] (50 nM His6-AspH315–758, 1.0 μM hFX-CP101–119, 3 μM 2OG, 2 μM Fe(II), 50 mM HEPES pH 7.5, 20 °C, mean ± SD, n = 2 (2,4-PDCA n = 10)): inactive

O=C(c1ccc(Cl)cc1)N1CCN(c2ccc([N+](=O)[O-])c3ncccc23)CC1 [CPNQ]
Plate 2 (% conversion) [2]: 35.99%
Plate 2 (% inhibition) [3]: -0.10%

CC1(C)CCC(NC(=O)[C@@H](N)CCC(=O)O)CC1 [CR 2249]
Plate 3 (% conversion) (LOPAC compound at 20uM, plate 3, conversion of substrate peptide): 40.87%

O=C(c1ccc2c(c1)OCCO2)N1CCCCC1 [CX 546]
Plate 2 (% conversion) [2]: 39.70%
Plate 2 (% inhibition) [3]: -11.19%

[Ca+2].[Cl-].[Cl-] [Ca(II), CaCl2, reference compound]
IC50 metal ion, AspH [μM] (50 nM AspH, 2.0 μM Fe(II), Zn(OAc)2, NiSO4, CoCl2, MnCl2, CaCl2 as metal sources, n = 2, mean ± SD): do not show any effect; also recorded: does not perturb AspH activity; also recorded: inactive

O=C(/C=C/c1ccc(O)c(O)c1)OCCc1ccccc1 [Caffeic acid phenethyl ester, reference compound]
inhibition at 20 µM [4]: 98.5%
Plate 1 (% inhibition) [5]: 98.53%
Plate 1 (% conversion) [6]: 2.78%

Cn1c(=O)c2c(ncn2C)n(C)c1=O [Caffeine]
Plate 1 (% inhibition) [5]: -5.72%
Plate 1 (% conversion) [6]: 37.79%

CNc1ccc2oc(C[C@H]3O[C@@]4(CC[C@H]3C)O[C@H]([C@H](C)C(=O)c3ccc[nH]3)[C@H](C)C[C@H]4C)nc2c1C(=O)O [Calcimycin, calcimycin, reference compound]
Plate 1 (% conversion): 2.02%
IC50 (IC50 [μM]): 4.19 ± 0.1 µM
inhibition at 20 µM (read-out: Inhibition at 20 µM [%]): 101%

Clc1ccc(C(c2ccc(Cl)cc2)n2cc[n+](CC(OCc3ccc(Cl)cc3Cl)c3ccc(Cl)cc3Cl)c2)cc1 (centres unmarked) [Calmidazolium chloride]
Plate 1 (% conversion): 58.50%
Plate 1 (% inhibition) [5]: -67.38%

O=c1[nH]c(=S)[nH]c(-c2ccccc2)c1Cc1c(O)ccc2ccccc12 [Cambinol]
Plate 2 (% conversion) [2]: 25.50%
inhibition at 20 µM [7]: 31.2%

CC1(C(=O)O)C2CCC(O2)C1(C)C(=O)O (centres unmarked) [Cantharidic Acid]
Plate 1 (% conversion): 25.92%
Plate 1 (% inhibition): 29.65%

C[C@@]12C(=O)OC(=O)[C@]1(C)[C@H]1CC[C@@H]2O1 [Cantharidin]
Plate 1 (% conversion): 17.40%
Plate 1 (% inhibition): 55.02%

Oc1cc2c(cc1O)CN(C(=S)NCCc1ccc(Cl)cc1)CCC2 [Capsazepine, capsazepine, reference compound]
IC50 (50 nM His6-AspH315–758, 1.0 μM hFX-CP101–119, 3 μM 2OG, 2 μM Fe(II), 50 mM HEPES pH 7.5, 20 °C, mean ± SD, n = 2 (2,4-PDCA n = 10), read-out: IC50): 3.41 ± 0.28 µM
inhibition at 20 µM [4]: 99.7%
Plate 2 (% conversion) [2]: 2.59%
inhibition at 20 µM [7]: 99.7%

C[C@H](CS)C(=O)N1CCC[C@H]1C(=O)O [Captopril]
Plate 1 (% conversion): 35.34%
Plate 1 (% inhibition): 1.58%

C[N+](C)(C)CCOC(N)=O [Carbachol]
Plate 1 (% inhibition) [5]: -3.17%
Plate 1 (% conversion) [6]: 36.94%

NC(=O)N1c2ccccc2C=Cc2ccccc21 [Carbamazepine]
Plate 1 (% inhibition) [5]: 0.72%
Plate 1 (% conversion) [6]: 35.63%

CCN(CC)CCOCCOC(=O)C1(c2ccccc2)CCCC1 [Carbetapentane citrate]
Plate 1 (% inhibition) [5]: 80.85%
Plate 1 (% conversion) [6]: 8.72%

CCCCCCNC(=O)n1cc(F)c(=O)[nH]c1=O [Carmofur]
% conversion: 37.69%
inhibition at 20 µM (LOPAC Plate 4, compound at 20 uM, read-out: % inhibition): -3.58%

O=NN(CCCl)C(=O)NCCCl [Carmustine]
Plate 1 (% conversion): 39.33%
Plate 1 (% inhibition) [5]: -10.30%

CCN(CC)CCn1c(=O)c(Cc2ccc(OC)cc2)nc2ccccc21.Cl [Caroverine hydrochloride]
% conversion [1]: 34.53%

N[C@@H](C(=O)N[C@@H]1C(=O)N2C(C(=O)O)=C(Cl)CS[C@H]12)c1ccccc1 [Cefaclor]
Plate 1 (% inhibition) [5]: 23.98%
Plate 1 (% conversion) [6]: 27.82%

Cc1nnc(SCC2=C(C(=O)O)N3C(=O)[C@@H](NC(=O)Cn4cnnn4)[C@H]3SC2)s1 [Cefazolin sodium]
Plate 1 (% inhibition) [5]: 9.95%
Plate 1 (% conversion) [6]: 32.53%

CO[C@@]1(NC(=O)CSCC#N)C(=O)N2C(C(=O)O)=C(CSc3nnnn3C)CS[C@@H]21 [Cefmetazole sodium]
Plate 1 (% inhibition) [5]: -3.81%
Plate 1 (% conversion) [6]: 37.15%

CO/N=C(\C(=O)N[C@@H]1C(=O)N2C(C(=O)O)=C(COC(C)=O)CS[C@H]12)c1csc(N)n1 [Cefotaxime sodium]
Plate 1 (% inhibition) [5]: 3.71%
Plate 1 (% conversion) [6]: 34.63%

NC(=O)c1cc[n+](CC2=C(C(=O)[O-])N3C(=O)[C@@H](NC(=O)C(c4ccccc4)S(=O)(=O)[O-])[C@H]3SC2)cc1.O.[Na+] (some centres unmarked) [Cefsulodin sodium salt hydrate]
Plate 1 (% inhibition) [5]: 64.70%
Plate 1 (% conversion) [6]: 14.14%

CO/N=C(\C(=O)N[C@@H]1C(=O)N2C(C(=O)O)=C(CSc3nc(=O)c(=O)[nH]n3C)CS[C@H]12)c1csc(N)n1 [Ceftriaxone sodium]
Plate 1 (% inhibition) [5]: -8.63%
Plate 1 (% conversion) [6]: 38.77%

Cc1ccc(-c2cc(C(F)(F)F)nn2-c2ccc(S(N)(=O)=O)cc2)cc1 [Celecoxib]
Plate 5 (% inhibition) (plate 5 (Pfitzer), test compounds at fixed 20 μM): -13.08%
Plate 5 (% conversion) (plate 5 (Pfitzer), test compounds at fixed 20 μM, mean conversion DMSO 32.88): 40.77%

CN(C)CCOC(=O)COc1ccc(Cl)cc1 [Centrophenoxine hydrochloride]
Plate 1 (% conversion): 36.66%
Plate 1 (% inhibition): -2.35%

CC1=C(C(=O)O)N2C(=O)[C@@H](NC(=O)[C@H](N)c3ccccc3)[C@H]2SC1.O [Cephalexin hydrate]
Plate 1 (% inhibition) [5]: 14.49%
